Source: patent publication US8906826B2, “Herbicidal compositions comprising 4-amino-3-chloro-5-fluoro-6-(4-chloro-2-fluoro-3-methoxyphenyl) pyridine-2-carboxylic acid or a derivative thereof and imidazolinones” (Dow AgroSciences, LLC, priority 2012, dated 2014)

Tests used:
[1] = system: LEFCH; assay: Postemergence foliar-applied, direct seeded rice weeds (Example I); type: in vivo, Leptochloa chinensis (L.) Nees
Text: (§1) Seeds or nutlets of the desired test plant species were planted in a soil matrix prepared by mixing a loam or sandy loam soil (e.g., 28.6 percent silt, 18.8 percent clay, and 52.6 percent sand, with a pH of about 5.8 and an organic matter content of about 1.8 percent) and calcareous grit in an 80 to 20 ratio. The soil matrix was contained in plastic pots with a volume of 1 quart and a surface area of 83.6 cm^2. When required to ensure good germination and healthy plants, a fungicide treatment and/or other chemical or physical treatment was applied. The plants were grown for 8-22 days in a greenhouse with an approximate 14 h photoperiod which was maintained at about 29° C. during the day and 26° C. during the night. Nutrients (Peters Excel® 15-5-15 5-Ca 2-Mg and iron chelate) were applied in the irrigation solution as needed and water was added on a regular basis. Supplemental lighting was provided with overhead metal halide 1000-Watt lamps as necessary. The plants were employed for testing when they reached the first through fourth true leaf stage.
(§2) Treatments consisted of the acid or esters of 4-amino-3-chloro-5-fluoro-6-(4-chloro-2-fluoro-3-methoxy-phenyl)pyridine-2-carboxylic acid (Compound A), each formulated as an SC (suspension concentrate), and various herbicidal components alone and in combination. Forms of compound A were applied on an acid equivalent basis.
(§3) Other herbicidal components were applied on an acid equivalent basis and include acetolactate synthase (ALS)-inhibiting herbicides (imidazolinone chemical class) imazethapyr ammonium salt formulated as Newpath®, imazamox ammonium salt formulated as Beyond®, imazapic ammonium salt formulated as Plateau®, imazapyr isopropylamine salt formulated as Arsenal®, imazamethabenz-methyl (technical material) and imazaquin isopropylamine salt formulated as Scepter®/Imagine®.
(§4) Treatment requirements were calculated based upon the rates being tested, the concentration of active ingredient or acid equivalent in the formulation, and a 12 mL application volume at a rate of 187 L/ha.
For treatments comprised of formulated compounds, measured amounts of compounds were placed individually in 25 mL glass vials and diluted in a volume of 1.25% (v/v) Agri-Dex® crop oil concentrated to obtain 12× stock solutions. […] Application solutions were prepared by adding an appropriate amount of each stock solution (e.g., 1 mL) and diluted to the appropriate final concentrations with the addition of 10 mL of an aqueous mixture of 1.25% (v/v) crop oil concentrate so that the final spray solutions contained 1.25+/−0.05% (v/v) crop oil concentrate. […]
For treatments comprised of formulated and technical compounds, weighed amounts of the technical materials were placed individually in 25 mL glass vials and dissolved in a volume of 97:3 v/v acetone/DMSO to obtain 12× stock solutions, and measured amounts of the formulated compounds were placed individually in 25 mL glass vials and diluted in a volume of 1.5% (v/v) crop oil concentrate or water to obtain 12× stock solutions. […] Application solutions were prepared by adding an appropriate amount of each stock solution (e.g., 1 mL) and diluted to the appropriate final concentrations with the addition of an appropriate amount of an aqueous mixture of 1.5% (v/v) crop oil concentrate so that the final spray solutions contained 1.25% (v/v) crop oil concentrate. As required, additional water and/or 97:3 v/v acetone/DMSO was added to individual application solutions so that the final acetone and DMSO concentrations of the application solutions being compared were 8.1% and 0.25%, respectively.
All stock solutions and applications solutions were visually inspected for compound compatibility prior to application. […]

[2] = system: DIGSA; assay: as above; type: in vivo, Digitaria sanguinalis (L.) Scop.
Text: as §1, §2, §3, §4
For treatments comprised of formulated compounds, measured amounts of compounds were placed individually in 25 mL glass vials and diluted in a volume of 1.25% (v/v) Agri-Dex® crop oil concentrated to obtain 12× stock solutions. […]
For treatments comprised of formulated and technical compounds, weighed amounts of the technical materials were placed individually in 25 mL glass vials and dissolved in a volume of 97:3 v/v acetone/DMSO to obtain 12× stock solutions, and measured amounts of the formulated compounds were placed individually in 25 mL glass vials and diluted in a volume of 1.5% (v/v) crop oil concentrate or water to obtain 12× stock solutions. […]

SMILES: COCc1cnc(C2=NC(C)(C(C)C)C(=O)N2)c(C(=O)O)c1.N (racemic) [Imazamox ammonium, ammonium (±)-2-[4,5-dihydro-4-methyl-4-(1-methylethyl)-5-oxo-1H-imidazol-2-yl]-5-(methoxymethyl)-3-pyridinecarboxylate]
- Visual Weed Control (%) - 25 DAA LEFCH Obs ([1]; Imazamox ammonium 11.2 gae/ha): 20%
- Visual Weed Control (%) - 20 DAA DIGSA Obs ([2]; Imazamox ammonium 44.8 gae/ha): 60%

SMILES: Cc1cnc(C2=NC(C)(C(C)C)C(=O)N2)c(C(=O)O)c1.N (racemic) [Imazapic ammonium, ammonium (±)-2-[4,5-dihydro-4-methyl-4-(1-methylethyl)-5-oxo-1H-imidazol-2-yl]-5-methyl-3-pyridinecarboxylic acid]
- Visual Weed Control (%) - 25 DAA LEFCH Obs ([1]; Imazapic ammonium 17.5 gae/ha): 50%
- Visual Weed Control (%) - 20 DAA LEFCH Obs ([1]; Imazapic ammonium 35 gae/ha): 85%

SMILES: CCc1cnc(C2=NC(C)(C(C)C)C(=O)N2)c(C(=O)O)c1.N (racemic) [Imazethapyr ammonium, ammonium (±)-2-[4,5-dihydro-4-methyl-4-(1-methylethyl)-5-oxo-1H-imidazol-2-yl]-5-ethyl-3-pyridinecarboxylate]
- Visual Weed Control (%) - 25 DAA LEFCH Obs ([1]; Imazethapyr ammonium 8.75 gae/ha): 20%
- Visual Weed Control (%) - 20 DAA DIGSA Obs ([2]; Imazethapyr ammonium 70 gae/ha): 80%

SMILES: COc1c(Cl)ccc(-c2nc(C(=O)O)c(Cl)c(N)c2F)c1F [Compound A Acid, 4-amino-3-chloro-6-(4-chloro-2-fluoro-3-methoxyphenyl)-5-fluoropyridine-2-carboxylic acid]
- Visual Weed Control (%) - 25 DAA LEFCH Obs ([1]; Compound A Acid 4.38 gae/ha): 0%
- Visual Weed Control (%) - 25 DAA LEFCH Obs ([1]; Compound A Acid 8.75 gae/ha): 10%
- Visual Weed Control (%) - 25 DAA LEFCH Obs ([1]; Compound A Acid 17.5 gae/ha): 45%
- Visual Weed Control (%) - 20 DAA LEFCH Obs ([1]; Compound A Acid 19.4 gae/ha): 5%
- Visual Weed Control (%) - 20 DAA DIGSA Obs ([2]; Compound A Acid 19.3 gae/ha): 13%

SMILES: COc1c(Cl)ccc(-c2nc(C(=O)OCc3ccccc3)c(Cl)c(N)c2F)c1F [Compound A Benzyl Ester, benzyl ester of 4-amino-3-chloro-5-fluoro-6-(4-chloro-2-fluoro-3-methoxy-phenyl)pyridine-2-carboxylic acid]
- Visual Weed Control (%) - 25 DAA LEFCH Obs ([1]; Compound A Benzyl Ester 8.75 gae/ha): 70%
- Visual Weed Control (%) - 25 DAA LEFCH Obs ([1]; Compound A Benzyl Ester 17.5 gae/ha): 70%
